What was measured:
[1] = test system: Ramos cells / immobilized VCAM-1 (extracellular domains 1–3); test: Adhesion of Ramos cells to immobilized VCAM-1 (domains 1–3); type: cell-based; conditions: Homo sapiens, 1 h
Description: In Vitro Assay: Adhesion of Ramos Cells to Immobilized VCAM-1 (Domains 1–3) Preparation of VCAM-1 (extracellular domains 1–3)
Complementary DNA (cDNA) encoding 7-domain form of VCAM-1 (GenBank accession #M60335) was obtained using Rapid-ScreenTM cDNA library panels (OriGene Technologies, Inc) at Takara Gene Analysis Center (Shiga, Japan). The primers used were 5′-CCAAGGCAGAGTACGCAAAC-3′ (sense) and 5′-TGGCAGGTATTATTAAGGAG-3′ (antisense). PCR amplification of the 3-domain VCAM-1 cDNA was perform using Pfu DNA polymerase (Stratagene) with the following sets of primers: (U-VCAMd1–3) 5′-CCATATGGTACCTGATCAATTTAAAATCGAGACCACCCCAGAA-3′; (L-VCAMd1–3) 5′-CCATATAGCAATCCTAGGTCCAGGGGAGATCTCAACAGTAAA-3′. PCR cycle was 94° C. for 45 sec, 55° C. for 45 sec, 72° C. for 2 min, repeating 15 cycles. After the purification of the PCR product, the fragment was digested with KpnI-AvrII. The digested fragment was ligated into pBluescript IISK(-) (Strategene), which was linearized by digesting with KpnI-XhoI. The ligation was followed by transformation to a Dam/Dcm methylase-free E. coli strain SCS110 (Strategene) to create the donor plasmid pHH7. To direct VCAM-1 molecule into the insect cell secretory pathway, the VCAM-1 coding sequence was fused to signal peptide sequence of honeybee melittin. The resulting melittin-VCAM fusion was placed in correct orientation to the baculovirus polyhedrin promoter. Baculovirus transfer vector containing first 3-domain form VCAM-1 (pH10) was constructed by ligation of 0.9 kb fragment from AvrIIenow/BclI digests of pH7 into SalI/Klenow/BamHI digests of pMelBacB (Invitrogen). Recombinant baculovirus was generated by using Bac-N-Blue™ Transfection kit (Invitrogen) according to the manufacture's instruction. The recombinant virus was amplified by infection to High-Five™ insect cells for 5–6 days, and virus titer was determined by plaque assay.
High-Five™ insect cells were pelleted in a 225 ml conical tube by centrifugation at 1000 rpm for 5 min. After discarding the supernatant, the pellet was resuspended in 1.5×10^9 pfu (MOI=5) of high-titer virus solution, followed by incubation for 1.5 hours at room temperature. The cells were pelleted again and washed once in fresh Express Five™ serum free medium. The cells were pelleted again and finally, resuspended in 200 ml of fresh Express Five™ medium, transferred to a 1,000 ml shaker flask, and incubated in a shaker at 27° C., 130 rpm, for 48 hours before the culture supernatant was collected. […] Protein concentration was determined by using Coomassie protein assay reagent (Pierce) according to the manufacture's instruction. […]
Preparation of Fluorescence Labeled Ramos Cells: […]

Row | IC50 [1] [µM] | melting point [°C] | SMILES
1 | < 1 | 166 | COc1ccc(C(CC(=O)Nc2ccc(NC(=O)Nc3ccccc3C)cc2)NC(=O)c2ccc(C(=O)O)cc2)cc1OC (stereo not shown) [Example 1, 4-{[(1-(3,4-Dimethoxyphenyl)-3-{[4-({[(2-methylphenyl)amino]carbonyl}amino)phenyl]amino}-3-oxopropyl)amino]carbonyl}benzoic acid]
2 | > 10 | – | Cc1ccccc1NC(=O)Nc1ccc(CNC(=O)C2(CNC(=O)c3ccc(C(=O)O)cc3)CCCCC2)cc1 [Example 2, 4-[({[1-({[4-({[(2-methylphenyl)amino]carbonyl}-amino)benzyl]amino}carbonyl)cyclohexyl]methyl}-amino)carbonyl]benzoicacid]
3 | > 10 | 214 | COc1ccc(C(CC(=O)NCc2ccc(NC(=O)Nc3ccccc3C)cc2)NC(=O)c2ccc(C(=O)O)cc2)cc1OC (stereo not shown) [Example 3, 4-{[(1-(3,4-dimethoxy-phenyl)-3-{[4-({[(2-methyl-phenyl)amino]carbonyl}amino)benzyl]amino}-3-oxopropyl)amino]carbonyl}benzoic acid]
4 | < 1 | 275 to 280 | COc1cccc(C(CC(=O)Nc2ccc(NC(=O)Nc3ccccc3C)cc2)NC(=O)c2ccc(C(=O)O)cc2)c1 (stereo not shown) [Example 4, 4-{[(1-(3-methoxy-phenyl)-3-{[4-({[(2-methylphenyl)-amino]carbonyl}amino)phenyl]amino}-3-oxopropyl)amino]carbonyl}benzoic acid]
5 | – | 210 to 215 | COc1ccc(C(CC(=O)Nc2ccc(NC(=O)Nc3ccccc3C)cc2)NC(=O)c2ccc(C(=O)OC(C)(C)C)cc2)cc1OC (stereo not shown) [Example VII, tert-Butyl-4-{[(1-(3,4-dimethoxyphenyl)-3-{[4-({[(2-methylphenyl)-amino]carbonyl}amino)phenyl]amino}-3-oxopropyl)amino]carbonyl}benzoate]
6 | – | 223 to 226 | COc1ccc(C(CC(=O)NCc2ccc(NC(=O)Nc3ccccc3C)cc2)NC(=O)c2ccc(C(=O)OC(C)(C)C)cc2)cc1OC (stereo not shown) [IX, tert-Butyl-4-{[(1-(3,4-dimethoxyphenyl)-3-{[4-({[(2-methylphenyl)amino]carbonyl}amino)benzyl]amino}-3-oxopropyl)amino]carbonyl}-benzoate]
7 | – | 187 to 189 | Cc1ccccc1NC(=O)Nc1ccc(CNC(=O)C2(CNC(=O)c3ccc(C(=O)OC(C)(C)C)cc3)CCCCC2)cc1 [VIII, tert-Butyl 4-[({[1-({[4-({[(2-methylphenyl)amino]carbonyl}amino)benzyl]amino}carbonyl)cyclohexyl]methyl}-amino)carbonyl]benzoate]

— patent US7091242B2, “Beta-amino acid derivatives as integrin receptor antagonists” (Bayer Aktiengesellschaft, priority 2000, dated 2006)
